According to ChEMBL document CHEMBL1201862, “PubChem BioAssay data set” (2004):
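Five concentrations, 48 hours, 96-well plates. Here, GI50 denotes the concentration required for 50% inhibition of growth.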 Activity calls are given as the source filed them. Rule as the data show it: active = GI50 up to about 1.1 µM and inactive = higher.

Experiments:
Assay in all cases: inhibition of tumour cell growth, NCI panel, 48 h
[1] = system: 786-0
[2] = system: A498
[3] = system: EKVX
[4] = system: HOP-92
[5] = system: IGROV-1
[6] = system: LOX IMVI
[7] = system: MCF7
[8] = system: MOLT-4
[9] = system: NCI-H226
[10] = system: NCI-H23
[11] = system: PC-3
[12] = system: SF-539
[13] = system: SK-MEL-2
[14] = system: SK-MEL-5
[15] = system: SK-OV-3
[16] = system: UACC-257
[17] = system: UACC-62
[18] = system: UO-31
[19] = system: HL-60

Measured: GI50

COc1ccc2c(c1)OCc1c-2oc2ccccc2c1=O
inactive: [1] 45.7 µM | [2] > 100 µM | [3] > 100 µM | [4] > 100 µM | [5] 75.2 µM | [6] > 100 µM | [7] > 100 µM | [8] > 100 µM | [9] > 100 µM | [11] > 100 µM | [12] 40.1 µM | [13] > 100 µM | [14] 41.1 µM | [15] 47.5 µM | [16] > 100 µM | [17] > 100 µM | [18] > 100 µM
active: [10] 0.0895 µM

CCCCC(=O)Nc1ccc2cc(C(=O)OC)c(=O)[nH]c2n1
inactive: [1] > 100 µM | [2] > 100 µM | [3] > 100 µM | [4] > 100 µM | [5] > 100 µM | [6] > 100 µM | [7] > 100 µM | [8] > 100 µM | [9] > 100 µM | [10] > 100 µM | [11] > 100 µM | [12] > 100 µM | [13] > 100 µM | [14] > 100 µM | [15] > 100 µM | [16] > 100 µM | [18] > 100 µM

N#CC(/N=N/c1ccc(Cl)cc1)c1nc2ccccc2o1 (stereo not given)
inactive: [1] 62.2 µM | [2] 49 µM | [3] 34.5 µM | [19] 33.7 µM | [4] 17.7 µM | [7] > 100 µM | [8] 20.5 µM | [9] > 100 µM | [10] 25.6 µM | [11] 77.6 µM | [12] 24.6 µM | [13] 28.7 µM | [14] > 100 µM | [15] 32.7 µM | [16] > 100 µM | [17] 20.6 µM | [18] > 100 µM

CCCCCc1c(CCCC)c(O)nc2nc(NC(=O)CCCC)ccc12
inactive: [1] > 100 µM | [2] > 100 µM | [3] > 100 µM | [4] > 100 µM | [5] > 100 µM | [6] > 100 µM | [7] > 100 µM | [8] > 100 µM | [9] > 100 µM | [10] > 100 µM | [11] > 100 µM | [12] > 100 µM | [13] > 100 µM | [14] > 100 µM | [15] > 100 µM | [16] > 100 µM | [18] > 100 µM

O=S(=O)(O)c1cc(O)c2c(O)c(/N=N/c3cccc4ccccc34)c(S(=O)(=O)O)cc2c1
inactive: [1] > 100 µM | [2] > 100 µM | [3] > 100 µM | [4] > 100 µM | [5] > 100 µM | [6] > 100 µM | [7] > 100 µM | [8] > 100 µM | [9] > 100 µM | [10] > 100 µM | [11] > 100 µM | [12] > 100 µM | [13] > 100 µM | [14] > 100 µM | [15] > 100 µM | [16] > 100 µM | [17] > 100 µM | [18] > 100 µM

NC(Cc1ncccn1)C(=O)O (stereo not given)
inactive: [1] > 100 µM | [2] > 100 µM | [3] > 100 µM | [4] > 100 µM | [5] > 100 µM | [6] > 100 µM | [7] > 100 µM | [8] > 100 µM | [9] > 100 µM | [10] > 100 µM | [11] > 100 µM | [12] > 100 µM | [13] > 100 µM | [14] > 100 µM | [15] > 100 µM | [16] > 100 µM | [17] > 100 µM | [18] > 100 µM
